The text below walks through data of patent publication US7794994B2 (Kemeta, LLC, priority 2001, dated 2010).

Each structure is given as a SMILES string. Read-outs that look alike come from different tables or passages of the source.

The test system of data set [1] is secondary alcohol dehydrogenase from R. rhodochrous PNKb1. Particulars: R. rhodochrous PNKb1 enzyme; cited from earlier work.
In data set [2] the target is T1, acetone carboxylase from X. autotrophicus strain Py2 (Xanthobacter versatilis, UniProt Q8RM03+Q8RM04).
T1 sequence (Q8RM03 1-776): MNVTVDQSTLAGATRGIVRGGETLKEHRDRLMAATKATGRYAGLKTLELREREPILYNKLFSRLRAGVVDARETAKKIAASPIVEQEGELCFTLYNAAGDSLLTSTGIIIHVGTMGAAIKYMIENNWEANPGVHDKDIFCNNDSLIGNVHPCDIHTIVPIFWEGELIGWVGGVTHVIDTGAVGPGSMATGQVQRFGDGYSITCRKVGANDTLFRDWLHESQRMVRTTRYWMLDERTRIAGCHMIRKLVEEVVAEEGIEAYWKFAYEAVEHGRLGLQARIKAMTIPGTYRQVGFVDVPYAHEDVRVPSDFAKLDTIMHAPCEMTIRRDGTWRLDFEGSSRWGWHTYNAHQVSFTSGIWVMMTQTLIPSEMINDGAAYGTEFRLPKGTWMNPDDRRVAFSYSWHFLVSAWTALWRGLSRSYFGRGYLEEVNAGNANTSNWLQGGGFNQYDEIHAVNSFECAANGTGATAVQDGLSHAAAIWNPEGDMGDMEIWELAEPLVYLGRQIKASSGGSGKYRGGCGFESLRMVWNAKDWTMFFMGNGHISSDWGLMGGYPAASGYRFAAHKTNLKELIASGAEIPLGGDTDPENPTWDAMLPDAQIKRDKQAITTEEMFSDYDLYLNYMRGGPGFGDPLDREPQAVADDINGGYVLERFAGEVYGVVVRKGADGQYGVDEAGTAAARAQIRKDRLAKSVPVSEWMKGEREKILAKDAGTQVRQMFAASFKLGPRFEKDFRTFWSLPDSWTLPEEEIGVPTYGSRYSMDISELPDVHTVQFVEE
T1 sequence (Q8RM04 1-717): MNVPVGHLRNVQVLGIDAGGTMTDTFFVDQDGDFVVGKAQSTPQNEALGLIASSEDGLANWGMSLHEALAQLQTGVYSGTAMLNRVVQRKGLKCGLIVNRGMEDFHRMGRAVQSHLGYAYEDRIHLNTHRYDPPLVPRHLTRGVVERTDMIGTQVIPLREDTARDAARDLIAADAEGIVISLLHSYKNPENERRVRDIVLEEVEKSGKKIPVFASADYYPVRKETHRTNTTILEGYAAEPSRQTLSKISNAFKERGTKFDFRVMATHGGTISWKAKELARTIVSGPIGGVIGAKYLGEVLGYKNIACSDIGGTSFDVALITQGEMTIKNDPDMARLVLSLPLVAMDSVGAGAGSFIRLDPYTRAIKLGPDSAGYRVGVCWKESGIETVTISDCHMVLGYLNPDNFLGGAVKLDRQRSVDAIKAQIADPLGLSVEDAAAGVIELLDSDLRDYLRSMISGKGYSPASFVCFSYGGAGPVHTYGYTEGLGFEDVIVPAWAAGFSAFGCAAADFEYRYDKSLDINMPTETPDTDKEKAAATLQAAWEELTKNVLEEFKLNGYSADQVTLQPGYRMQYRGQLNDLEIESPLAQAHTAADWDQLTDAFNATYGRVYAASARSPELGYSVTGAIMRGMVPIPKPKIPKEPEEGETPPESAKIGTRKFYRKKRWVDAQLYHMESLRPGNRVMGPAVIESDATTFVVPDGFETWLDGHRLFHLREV
T1 sequence (Q8RM02 2-168 partner limits assumed): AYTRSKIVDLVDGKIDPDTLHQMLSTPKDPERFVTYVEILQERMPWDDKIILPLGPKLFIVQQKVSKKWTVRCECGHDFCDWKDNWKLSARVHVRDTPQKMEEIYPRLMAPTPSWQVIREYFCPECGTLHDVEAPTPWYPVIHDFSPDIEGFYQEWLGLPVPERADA
The note with it: cited from earlier work.

Data set [3] concerns acetone carboxylase from Rhodobacter capsulatus strain B10. The note with it: cited from earlier work.
For data set [4] the following is noted: as reported by NIST; cited from earlier work.
For data set [5], the system named is 3-enzyme system (S-ADH coupled to lactate dehydrogenase and pyruvate oxidase). In words: S-ADH coupled to H2O2 formation electrochemical assay (3-enzyme system), interference compounds. In kind it is biochemical, X. autotrophicus Py2. Particulars: for interference with the acetone measurement (current response): Acetone plus 10 mM ethanol, 50 μM isopropanol or 50 μM isobutanol, data not shown. The method, then:
Secondary alcohol dehydrogenase coupled to H2O2 formation electrochemical assay. […] Before measurements the electrode surface was polished using Al2O3 paste for 1 min. and then rinsed with deionized water, sonicated for 1 min. and rinsed with water again. The polished Pt electrode was then pretreated electrochemically by applying 10 cycles of 100 mV/s from +200 mV to +900 mV. All potentials were referenced versus a Ag/AgCl electrode (BAS part number MF-2078). Assays contained potassium phosphate (100 mM, pH 7.2), purified S-ADH (1 U/mL), NADH (201 μM), lactate (100 mM), lactate dehydrogenase (5 U/mL), pyruvate oxidase (4 U/mL), flavin adenine dinucleotide (0.01 mM), cocarboxylase (0.2 mM), in a total volume of 0.5 mL. […] After a 2 min. incubation period, the potential was stepped from open circuit to 350 mV.

For data set [6], the system named is S-ADH from Pseudomonas species 6307. The note with it: cited from earlier work.

Turning to `CCCO` [1-Propanol], in data set [1], the Km is 18 mM.

With `CC(C)=O` [Acetone, acetone], the Vmax in data set [2] is on record as 0.206 μmol acetone consumed·min^−1·mg^−1 protein; in data set [3], 0.291 μmol acetone consumed·min^−1mg^−1 protein. Besides, the Km in data set [2] (read-out: apparent Km) is 0.0078 mM; in data set [3], 0.0082 mM. Also, the “Henry's Law constant” value in data set [4] is listed as 24 M·atm^−1.

For `CCC(C)=O` [2-Butanone], in data set [5] (50 μM butanone), the “current response relative to acetone” value was “equivalent to 50 μM acetone”. In addition, the “carboxylation rate relative to that of acetone” value in data set [2] is 40%.

As to `CC(C)O` [2-Propanol], the “interference with the acetone measurement (current response)” value in data set [5] was “do not interfere”. Besides, the Michaelis constant (Km) in data set [1] is 12 mM.

For `CCO` [Ethanol], the “interference with the acetone measurement (current response)” value in data set [5] was “do not interfere”. Besides, the inhibition by ethanol in data set [6] (in the presence of 10 mM ethanol) was 0%; in data set [6] (in the presence of 100 mM ethanol), 30%.

One may read the Km as the substrate concentration at which the rate is half of its maximum.
